US20260297080A1, “BICYCLIC COMPOUNDS AS CDK INHIBITORS” (BeOne Medicines I GmbH, priority 2022, published 2026)

Tests used:
CDK2/Cyclin E1 = CDK2/Cyclin E1 (Homo sapiens, UniProt P24941); experiment: CDK2/Cyclin E1 Biochemical Assay (TR-FRET), 0.060 mM ATP; settings: 0.15 μM Rb (Ser780)-biotin substrate, pH7.0, 60 min preincubation, 120 min reaction, room temperature
Method in brief: (§1)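 Kinase preincubated with compound (0–10 μM) 60 min at room temperature, then reaction started with ATP and 0.15 μM Rb (Ser780)-biotin peptide and run 120 min in HEPES pH 7.0 buffer with 50 mM MgCl2. Phospho-Rb detected by Eu-cryptate anti-pRb(Ser780)/streptavidin-XL665 TR-FRET (665/620 nm ratio); IC50 from four-parameter logistic fit.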

CDK1/Cyclin B1 = CDK1/Cyclin B1 (Homo sapiens, UniProt P06493); experiment: CDK1/Cyclin B1 Biochemical Assay (TR-FRET), 0.015 mM ATP; settings: 0.15 μM Rb (Ser780)-biotin substrate, pH7.0, 60 min preincubation, 120 min reaction, room temperature
CDK1/Cyclin B1, sequence (P06493 whole entry): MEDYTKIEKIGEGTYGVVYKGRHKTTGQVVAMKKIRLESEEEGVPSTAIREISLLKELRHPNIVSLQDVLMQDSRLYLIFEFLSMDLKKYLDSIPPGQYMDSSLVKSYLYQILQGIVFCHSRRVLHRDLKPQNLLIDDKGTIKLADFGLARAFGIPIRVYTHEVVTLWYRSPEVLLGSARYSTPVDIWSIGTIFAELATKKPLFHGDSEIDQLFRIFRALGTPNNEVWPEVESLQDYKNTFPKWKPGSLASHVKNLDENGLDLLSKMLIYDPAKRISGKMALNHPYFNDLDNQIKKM
CDK1/Cyclin B1, sequence (P14635 whole entry partner): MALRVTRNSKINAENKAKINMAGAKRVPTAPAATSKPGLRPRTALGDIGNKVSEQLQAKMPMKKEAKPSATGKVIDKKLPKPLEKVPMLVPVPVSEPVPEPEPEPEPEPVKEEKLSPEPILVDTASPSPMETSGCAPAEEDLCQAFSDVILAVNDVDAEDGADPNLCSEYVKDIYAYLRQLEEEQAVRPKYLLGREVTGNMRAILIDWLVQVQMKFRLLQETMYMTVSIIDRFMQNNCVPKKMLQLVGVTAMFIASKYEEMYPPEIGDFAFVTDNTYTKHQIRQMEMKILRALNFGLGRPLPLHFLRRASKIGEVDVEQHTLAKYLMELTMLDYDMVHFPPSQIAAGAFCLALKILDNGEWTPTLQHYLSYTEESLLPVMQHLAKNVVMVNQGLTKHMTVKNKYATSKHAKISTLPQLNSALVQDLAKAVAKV
Method in brief: as §1

SMILES	IC50 (CDK2/Cyclin E1)	IC50 (CDK1/Cyclin B1)
C[C@@H](CO)NC(=O)O[C@H]1CC[C@@H](c2cc(Nc3ccc4c(c3F)CNS4(=O)=O)n[nH]2)C1 (single isomer, unassigned) [Example 328b]	31 nM	1970 nM
CC[C@H](C)NC(=O)O[C@H]1C[C@@H](c2cc(Nc3cc4c(cc3F)S(=O)(=O)NC4)n[nH]2)C1 [Example 410, (1s,3R)-3-(3-((6-fluoro-1,1-dioxido-2,3-dihydrobenzo[d]isothiazol-5-yl)amino)-1H-pyrazol-5-yl)cyclobutyl((S)-sec-butyl)carbamate]	27 nM	884 nM
[2H]C([2H])([2H])N1c2ccc(Nc3cc([C@@H]4CC[C@H](OC(=O)NC(C)C)C4)[nH]n3)cc2CS1(=O)=O (relative stereo) [Example 206, cis-3-(3-((1-(methyl-d3)-2,2-dioxido-1,3-dihydrobenzo[c]isothiazol-5-yl)amino)-1H-pyrazol-5-yl)cyclopentyl isopropylcarbamate]	6.4 nM	63 nM
CNC(=O)O[C@H]1CC[C@@H](c2cc(Nc3ccc4c(c3)CS(=O)(=O)N4C)n[nH]2)C1 (relative stereo) [Example 225, cis-3-(3-((1-methyl-2,2-dioxido-1,3-dihydrobenzo[c]isothiazol-5-yl)amino)-1H-pyrazol-5-yl)cyclopentyl methylcarbamate]	87 nM	789 nM
CC(C)NC(=O)O[C@H]1CC[C@@H](c2cc(Nc3ccc4c(c3F)CS(=O)(=O)N4CC(F)(F)F)n[nH]2)C1 (single isomer, unassigned) [Example 263a, cis-3-(3-((4-fluoro-2,2-dioxido-1-(2,2,2-trifluoroethyl)-1,3-dihydrobenzo[c]isothiazol-5-yl)amino)-1H-pyrazol-5-yl)cyclopentyl isopropylcarbamate]	2.1 nM	70 nM
CC[C@H](C)NC(=O)O[C@H]1CC[C@@H](c2cc(Nc3ccc4c(c3F)CS(=O)(=O)N4C3COC3)n[nH]2)C1 (racemic) [Example 261, cis-3-(3-((4-fluoro-1-(oxetan-3-yl)-2,2-dioxido-1,3-dihydrobenzo[c]isothiazol-5-yl)amino)-1H-pyrazol-5-yl)cyclopentyl((S)-sec-butyl)carbamate]	1.3 nM	49 nM
CC1(NC(=O)O[C@H]2CC[C@@H](c3cc(Nc4ccc5c(c4F)CN(C4CC4)S5(=O)=O)n[nH]3)C2)CC1 (single isomer, unassigned) [Example 119a, cis-3-(3-((2-cyclopropyl-4-fluoro-1,1-dioxido-2,3-dihydrobenzo[d]isothiazol-5-yl)amino)-1H-pyrazol-5-yl)cyclopentyl(1-methylcyclopropyl)carbamate]	2.5 nM	216 nM
CC(C)NC(=O)O[C@H]1CC[C@@H](c2cc(Nc3ccc4c(c3F)CN(CC3COC3)S4(=O)=O)n[nH]2)C1 (relative stereo) [Example 97, cis-3-(3-((4-fluoro-2-(oxetan-3-ylmethyl)-1,1-dioxido-2,3-dihydrobenzo[d]isothiazol-5-yl)amino)-1H-pyrazol-5-yl)cyclopentyl isopropylcarbamate]	5.2 nM	449 nM
CC1(NC(=O)O[C@H]2CC[C@@H](c3cc(Nc4ccc5c(c4F)CN(C4CC4)S5(=O)=O)n[nH]3)C2)CC1 (racemic) [Example 119, cis-3-(3-((2-cyclopropyl-4-fluoro-1,1-dioxido-2,3-dihydrobenzo[d]isothiazol-5-yl)amino)-1H-pyrazol-5-yl)cyclopentyl(1-methylcyclopropyl)carbamate]	2.7 nM	146 nM
CC(C)NC(=O)O[C@H]1CC[C@@H](c2cc(Nc3cc4c(cc3F)CNS4(=O)=O)n[nH]2)C1 (single isomer, unassigned) [Example 1b, cis-3-(3-((5-fluoro-1,1-dioxido-2,3-dihydrobenzo[d]isothiazol-6-yl)amino)-1H-pyrazol-5-yl)cyclopentyl isopropylcarbamate]	18 nM	259 nM
CC(C)NC(=O)O[C@H]1CC[C@@H](c2cc(Nc3ccc4c(c3F)CN(C3CCCC3O)S4(=O)=O)n[nH]2)C1 (relative stereo) [Example 109, cis-3-(3-((4-fluoro-2-(2-hydroxycyclopentyl)-1,1-dioxido-2,3-dihydrobenzo[d]isothiazol-5-yl)amino)-1H-pyrazol-5-yl)cyclopentyl isopropylcarbamate]	11 nM	1190 nM
CN1c2ccc(Nc3cc([C@@H]4CC[C@H](OC(=O)NC(C)(C)CO)C4)[nH]n3)cc2CS1(=O)=O (single isomer, unassigned) [Example 325a, cis-3-(3-((1-methyl-2,2-dioxido-1,3-dihydrobenzo[c]isothiazol-5-yl)amino)-1H-pyrazol-5-yl)cyclopentyl(1-hydroxy-2-methylpropan-2-yl)carbamate]	1.6 nM	23 nM
CC1(NC(=O)O[C@H]2CC[C@@H](c3cc(Nc4ccc5c(c4F)CS(=O)(=O)N5CCO)n[nH]3)C2)CCOC1 (relative stereo) [Example 393, cis-3-(3-((4-fluoro-1-(2-hydroxyethyl)-2,2-dioxido-1,3-dihydrobenzo[c]isothiazol-5-yl)amino)-1H-pyrazol-5-yl)cyclopentyl(3-methyltetrahydrofuran-3-yl)carbamate]	1.9 nM	119 nM
CC1NS(=O)(=O)c2ccc(Nc3cc([C@@H]4CC[C@H](OC(=O)NC5(C)CC5)C4)[nH]n3)cc21 (single isomer, unassigned) [Example 322d, cis-3-(3-((3-methyl-1,1-dioxido-2,3-dihydrobenzo[d]isothiazol-5-yl)amino)-1H-pyrazol-5-yl)cyclopentyl(1-methylcyclopropyl)carbamate]	0.7 nM	5.6 nM
C[C@@H](CO)NC(=O)O[C@H]1CC[C@@H](c2cc(Nc3ccc4c(c3F)CNS4(=O)=O)n[nH]2)C1 (single isomer, unassigned) [Example 328a]	10 nM	315 nM
CN1Cc2c(ccc(Nc3cc([C@@H]4CC[C@H](OC(=O)NC5COC5)C4)[nH]n3)c2F)S1(=O)=O (relative stereo) [Example 336, cis-3-(3-((4-fluoro-2-methyl-1,1-dioxido-2,3-dihydrobenzo[d]isothiazol-5-yl)amino)-1H-pyrazol-5-yl)cyclopentyl oxetan-3-ylcarbamate]	97 nM	1470 nM
CCCNC(=O)O[C@H]1CC[C@@H](c2cc(Nc3ccc4c(c3)CNS4(=O)=O)n[nH]2)C1 (relative stereo) [Example 178, cis-3-(3-((1,1-dioxido-2,3-dihydrobenzo[d]isothiazol-5-yl)amino)-1H-pyrazol-5-yl)cyclopentyl propylcarbamate]	1.5 nM	41 nM
CCCNC(=O)O[C@H]1CC[C@@H](c2cc(Nc3cc4c(cc3F)S(=O)(=O)NC4)n[nH]2)C1 (single isomer, unassigned) [Example 42b, cis-3-(3-((6-fluoro-1,1-dioxido-2,3-dihydrobenzo[d]isothiazol-5-yl)amino)-1H-pyrazol-5-yl)cyclopentyl propylcarbamate]	5.5 nM	128 nM
O=C(NC1CCC12CC2)O[C@H]1CC[C@@H](c2cc(Nc3ccc4c(c3F)CNS4(=O)=O)n[nH]2)C1 (relative stereo) [Example 152, cis-3-(3-((4-fluoro-1,1-dioxido-2,3-dihydrobenzo[d]isothiazol-5-yl)amino)-1H-pyrazol-5-yl)cyclopentyl spiro[2.3]hexan-4-ylcarbamate]	3.6 nM	324 nM
[2H]C([2H])([2H])N1c2c(F)cc(Nc3cc([C@@H]4CC[C@H](OC(=O)NCCC)C4)[nH]n3)cc2CS1(=O)=O (single isomer, unassigned) [Example 290b, cis-3-(3-((7-fluoro-1-(methyl-d3)-2,2-dioxido-1,3-dihydrobenzo[c]isothiazol-5-yl)amino)-1H-pyrazol-5-yl)cyclopentyl propylcarbamate]	7.5 nM	94 nM
CC1NS(=O)(=O)c2ccc(Nc3cc([C@@H]4CC[C@H](OC(=O)NC5(C)CC5)C4)[nH]n3)c(F)c21 (single isomer, unassigned) [Example 52c, cis-3-(3-((4-fluoro-3-methyl-1,1-dioxido-2,3-dihydrobenzo[d]isothiazol-5-yl)amino)-1H-pyrazol-5-yl)cyclopentyl(1-methylcyclopropyl)carbamate]	1.9 nM	154 nM
CC(C)NC(=O)O[C@H]1CC[C@@H](c2cc(Nc3ccc4c(c3F)CN(CC(O)CO)S4(=O)=O)nn2CC(O)CO)C1 (relative stereo) [Example 72, cis-3-(1-(2,3-dihydroxypropyl)-3-((2-(2,3-dihydroxypropyl)-4-fluoro-1,1-dioxido-2,3-dihydrobenzo[d]isothiazol-5-yl)amino)-1H-pyrazol-5-yl)cyclopentyl isopropylcarbamate]	5910 nM	> 10000 nM
CN1Cc2c(ccc(Nc3cc([C@@H]4CC[C@H](OC(=O)NC5(C)COC5)C4)[nH]n3)c2F)S1(=O)=O (single isomer, unassigned) [Example 352a, cis-3-(3-((4-fluoro-2-methyl-1,1-dioxido-2,3-dihydrobenzo[d]isothiazol-5-yl)amino)-1H-pyrazol-5-yl)cyclopentyl(3-methyloxetan-3-yl)carbamate]	14 nM	365 nM
O=C(NC1CC2(CCC2)C1)O[C@H]1CC[C@@H](c2cc(Nc3ccc4c(c3F)CNS4(=O)=O)n[nH]2)C1 (relative stereo) [Example 151, cis-3-(3-((4-fluoro-1,1-dioxido-2,3-dihydrobenzo[d]isothiazol-5-yl)amino)-1H-pyrazol-5-yl)cyclopentyl spiro[3.3]heptan-2-ylcarbamate]	80 nM	668 nM
